Results taken from paper PMC5754413, “Mass balance, metabolic disposition, and pharmacokinetics of a single oral dose of regorafenib in healthy human subjects” (Cancer Chemotherapy and Pharmacology, 2017).
Read-outs that look alike come from different tables or passages of the source.

Assays:
human feces = assay: Incubation with human feces under anaerobic conditions; format: in vitro ADME; conditions: anaerobic conditions, ex vivo
Procedure: Under anaerobic conditions, a suspension of fresh human feces (about 0.5 g) in degassed water (final volume 5 mL) was treated with a solution of [^14C]-labelled metabolite M-2 or metabolite M-7 (1 mg/mL acetonitrile; final concentration: 10 μM). After incubation for 24 h at 37 °C, the incubation mixture was terminated by the addition of acetonitrile (2 mL). After centrifugation (5 min, 3000 rpm), the supernatant (25 μL) was directly subjected to HPLC with the respective off-line radioactivity detection. As negative controls, metabolites M-2 and M-7 were incubated in water for 24 h at 37 °C.

[1] = parameters: method as in PMID 24896071; conditions: co-administration of ketoconazole with a single 160 mg dose of regorafenib; cited from earlier work
UGT1A9 = test system: UGT1A9; parameters: method as in PMID 24896071, PMID 27734608; conditions: in vitro data; cited from earlier work
[2] = Safety assessments in healthy male subjects; format: in vivo, human; conditions: single 120 mg dose, four subjects
Procedure: Blood pressure, pulse rate, electrocardiogram, physical examination, urine drug screening, and adverse events were evaluated throughout the study. The investigator obtained and recorded all the observed or reported adverse events, the severity (mild, moderate, or severe) of the events, and the relationship to study drug (in the investigator’s opinion).

[3] = Pharmacokinetics of regorafenib in plasma (HPLC–MS/MS) after a single oral 120 mg dose in healthy male subjects; format: in vivo, human; conditions: for half-life: plasma
Procedure: Subjects were screened within the 28 days before scheduled drug administration and entered the clinical unit 1 day before drug administration. After an overnight fasting, subjects received a single oral 120 mg dose of regorafenib, containing approximately 100 μCi (3.7 MBq) [^14C]regorafenib, as a 6 mL solution in an aqueous PEG-based vehicle (Diluent Sol 30 mL oral, Bayer HealthCare AG) followed by 240 mL water. The associated radiation exposure fell within International Commission on Radiological Protection Guidelines for Category IIa studies (0.1–1 mSv).
Blood and plasma: Blood samples (18.7 mL per each time point) were collected into nonbeaded lithium-heparinized tubes immediately pre-dose and at the following post-dose times: 0.5, 1, 1.5, 2, 2.5, 3, 4, 6, 9, 12, 16, 20, 24, 36, 48, 72, 96, 120, 144, 192, 240, and 288 h. For each sample, 1 mL of whole blood was stored at 4 °C for subsequent LSC and the remainder was processed for plasma. Individual 150 μL plasma samples for each time point were treated with formic acid (20 μL) and acetonitrile (450 μL). The samples were homogenized using a MS2 Minishaker® (IKA® Labortechnik, Staufen im Breisgau, Germany). The precipitated proteins were removed by centrifugation (5 min, 13,000 rpm, Biofuge). After concentrating the supernatant to about 80 μL, methanol (15 μL) was added. The individual samples were analyzed by HPLC with off-line radioactivity detection for metabolite profiling.
Quantitative analysis of regorafenib in plasma was performed after protein precipitation using a fully validated HPLC–MS/MS assay. The analyses were performed in accordance with the 2001 FDA guidelines on bioanalytical validation. [^2H3,^15N]-regorafenib was used as internal standard (final concentration: 12.5 µg/L). The calibration range was from 2.00 µg/L to 2.00 mg/L. Quality control samples in the concentration range 5.00 µg/L to […] were determined with an accuracy of 98.1–103% and a precision of 1.55–10.0% (n = 6–8/concentration). All samples were stored at or below − 15 °C and analyzed within 14 days after sample receipt.
Pharmacokinetic outcome measures were generated by non-compartmental analysis of plasma concentration–time data using WinNonlin v4.1 (Pharsight Corporation) in conjunction with Kincalc v2.50 (Bayer AG). For individual subjects, primary outcome measures were maximum observed concentration (C max) and area under the concentration–time curve from time zero to infinity (AUC). […] The metabolite or regorafenib percentages were calculated by AUC(0–144)metabolite or regorafenib divided by AUC(0–144)radioactivity calculated from data obtained by HPLC–LSC analysis. Secondary outcomes were: time to C max (t max); apparent terminal elimination half-life (t ½); apparent volume of distribution during the terminal phase after extravascular administration (Vz/F); and total body clearance of drug calculated after extravascular administration (e.g., apparent oral clearance) (CL/F). AUC was estimated by the sum of partial areas: partial areas were calculated using the linear (if C i ≤ C i+1) or the logarithmic (if C i > C i+1) trapezoidal rules. The quality of the half-life calculation was assessed based on graphs showing the concentration–time profile. For reliable calculation of the half-life, at least three data points (concentration/time values) were used. The extrapolated portion of the AUC from the last measured data point C(t n) to infinity was calculated using the concentration C last,calc, which was calculated from the log-linear regression line used for half-life calculation rather than C(t n). In addition, appropriate pharmacokinetic parameters were derived from the total radioactivity-versus-time data in blood and plasma.

[4] = male, human, regorafenib in plasma, LC–MS/MS, single oral 120 mg solution, N = 4, geometric mean (%CV)

Stability in feces / toward gut flora (human feces): stable
half-life ([3]; human, oral, 120 mg, except for subject 003, read-out: Half-lives for regorafenib, range between subjects): 39 to 48 h
half-life ([3]; human, oral, 120 mg, subject 003, read-out: Calculated t 1/2 for regorafenib (converted)): ~62 h
Vd/F ([3]; male, human, oral, 120 mg, regorafenib in plasma, geometric mean (%CV), N = 4, read-out: Vz/F): 216 L
Tmax ([3]; male, human, oral, 120 mg, regorafenib in plasma, median (range), N = 4): 1.25 h
half-life ([3]; male, human, oral, 120 mg, regorafenib in plasma, geometric mean (%CV), N = 4, read-out: t 1/2 (converted)): 48.6 h
AUC [3, 4]: 39000 ng·h/mL
Cmax [3, 4]: 1580 ng/mL
CL/F ([3]; regorafenib in plasma, geometric mean (%CV), N = 4): 3.08 (34.9) L/h
Compound: CNC(=O)c1cc(Oc2ccc(NC(=O)Nc3ccc(Cl)c(C(F)(F)F)c3)c(F)c2)ccn1 [Regorafenib, 4-[4-({[4-chloro-3-(trifluoromethyl)phenyl]carbamoyl}amino)-3-fluorophenoxy]-N-methylpyridine-2-carboxamide]
Increase in mean AUC [1]: 30–40%
Increase in mean C max [1]: 30–40%
Enzyme catalyzing conjugation with glucuronic acid (UGT1A9): by UGT1A9
Electrocardiograms, laboratory investigations, and vital signs [2]: no clinically relevant changes
Treatment-emergent adverse events ([2]; event considered unrelated to study drug): mild, non-serious headache
